# Paper PMC5686178, “Antimicrobial peptides in frog poisons constitute a molecular toxin delivery system against predators” (Nature Communications, 2017)
# Where a SMILES comes first, the peptide text is derived from it. Where no end group is shown, it is not given here. [ ]: non-standard residue; d: D form. sY = N[C@@H](Cc1ccc(OS(=O)(=O)O)cc1)C(=O)O; pGlu = O=C1CC[C@@H](C(=O)O)N1
# Columns and labels:
# [1] = ref [8],[23]; cited from earlier work
# Description: As the main model for our study, we used a peptide pair composed of the systemic toxin caerulein, and the AMP caerulein precursor fragment-3 (CPF), both of which are key constituents of the skin secretion of the frog Xenopus laevis [18]–[20] (Fig. 1b). Caerulein is a potent ligand of cholecystokinin receptors expressed in the vertebrate intestine, pancreas, and brain[9], and at sufficiently high concentrations, may induce nausea, hypotension, intestinal cramps, vomiting, and diarrhea[9],[21],[22]. Even in the intestine, the target receptors are only accessible by means of epithelial absorption ...
# [2] = test system: Caco-2 monolayers; assay: Scanning electron microscopy of Caco-2 monolayers; assay type: cell-based, Human; settings: fixation 5 min after administration
# Method: Caco-2 cells were seeded on glass coverslips that were coated with rat tail collagen 1 (Sigma-Aldrich) the day before. The effect of four treatments (100 µM CPF, 100 µM caerulein, 100 µM CPF + caerulein, and a negative control) on differentiated Caco-2 monolayers was visualized. Chemical fixation was performed in 12-well culture plates 5 min after peptide administration (700 µl of solution in all treatments). For fixation, plate wells were filled with 1 ml 2,5% glutaraldehyde in 0.05 M sodium cacodylate buffer (pH 7.4; 37 °C) for 20 min, and subsequently washed twice with the same buffer. Postfixation was performed with 1% osmium tetroxide for 30 min, followed by three rinses with double-distilled water. Dehydration was carried out using a graded hexylene glycol series: 30; 50; 70; and 90%, taking 15 min for each step. Cells were rinsed three times for 10 min with 100% hexylene glycol, and then two more times for 10 min with 100% ethanol. Critical-point drying of coverslips was done using a Balzers union CPD020. Dried coverslips were mounted on carbon-coated stubs with double-sided conductive tape. Gold coating happened with a Jeol 1200JFC fine coater, after which coverslips were examined with a Jeol JSM-840 scanning electron microscope operating at 12 kV.
# [3] = test system: Caco-2 monolayers; assay: Transepithelial toxin passage across Caco-2 monolayers (ELISA); settings: 60 min
# [4] = test system: other vertebrates; settings: intravenous, ref [9],[21],[22], cited from earlier work
# [5] = test system: EpiOral 3D tissues; assay: Transepithelial toxin passage across EpiOral multilayered oral epithelial model (ELISA); assay type: in vitro ADME; settings: 8-11 stacked cell layers, 60 min, n = 8, vs caerulein alone
# [6] = Caco-2 monolayer, apical to basolateral, 20 nmol caerulein + 20 nmol CPF (100 µM both) apical, ELISA, n = 9
molecule,measurement,setting,value
CSCC[C@H](NC(=O)[C@H](Cc1c[nH]c2ccccc12)NC(=O)CNC(=O)[C@@H](NC(=O)[C@H](Cc1ccc(OS(=O)(=O)O)cc1)NC(=O)[C@H](CC(=O)O)NC(=O)[C@H](CCC(N)=O)NC(=O)[C@@H]1CCC(=O)N1)[C@@H](C)O)C(=O)N[C@@H](CC(=O)O)C(=O)N[C@@H](Cc1ccccc1)C(N)=O [caerulein] ([pGlu]QD[sY]TGWMDF-NH2),Half-life in the bloodstream,[1],up to 45 min
same,"Damage to Caco-2 monolayers by SEM, toxin alone",[2]; 100 µM caerulein,does not damage Caco-2 monolayers
same,"Transepithelial passage of caerulein, % of applied dose at basolateral side","[3]; Caco-2 monolayer on collagen-coated transwell 0.4 µm, apical to basolateral, caerulein alone 100 µM (20 nmol) apical, apical 200 µL / basolateral 1000 µL, ELISA, n = 9",0.3 – 1%
same,"Transepithelial passage of caerulein, % of applied dose at basolateral side, CPF co-administered",[3]; [6],2.3–6.8%
same,"Transepithelial passage of caerulein, amount at basolateral side, CPF co-administered",[3]; [6],0.45 to 1.36 nmol
same,"Transepithelial passage of caerulein, amount at basolateral side","[3]; Caco-2 monolayer, apical to basolateral, caerulein alone 100 µM (20 nmol) apical, ELISA, n = 9",0.06 to 0.20 nmol
same,"Intravenously injected dose that caused severe sickness, molar",[4]; converted from 1 μg/kg BW,0.74 pmol/g BW
same,Intravenously injected dose that caused severe sickness,[4],1 μg/kg BW
"GFGSFLGKALKAALKIGANALGGSPQQ [CPF, caerulein precursor fragment-3]","Increase in caerulein passage by co-administered CPF, oral multilayer model",[5],nearly fivefold increase
same,"Damage to Caco-2 monolayers by SEM, CPF present",[2]; 100 µM CPF + caerulein,abundant intercellular ruptures in the monolayer
same,Increase in rate of transepithelial passage of caerulein by co-administered CPF,"[3]; Caco-2 monolayer, 100 µM both, on average, vs caerulein alone",near sevenfold increase
"GIGASILSAGKSALKGLAKGLAEHFAN-NH2 [BLP, bombinin-like peptide 1]",Enhancement of transepithelial passage of bombesin by co-administered BLP,"[3]; Caco-2 monolayer, 100 µM both apical, ELISA, n = 9, vs toxin alone",~ 4.5 times
